Measurements from EP0059983B1, “Substituted biphenyl compounds for use as a medicament” (THE WELLCOME FOUNDATION LIMITED, priority 1981, dated 1982).

Tests used:
[1] = tested on: hypercholesterolemic male rat; assay: Inhibition of dietary induced hypercholesterolemia in male rats (serum lipids); type: in vivo; set-up: key to Cholesterol lowering / Triglyceride lowering: In = Inactive at dose tested; A = Activity> clofibrate; M = Activity≤ clofibrate; settings: for Cholesterol lowering / Triglyceride lowering: rats, efficacy compared to clofibrate, dose not given; for % change in serum from control HDL: HDL cholesterol; for % change in serum from control HDL / % change in serum from control VLDL & LDL / % change in serum from control Cholesterol / % change in serum from control Triglyceride: male rats, oral; for % change in serum from control VLDL & LDL: VLDL & LDL cholesterol (difference between total and HDL cholesterol); for % change in serum from control Cholesterol / % change in serum from control Triglyceride: twice daily 3 days and once on day 4
Protocol: Hypercholesterolemia was produced in male rats after 3 days in a diet of 0.4% cholesterol and 0.2% sodium cholate. Each group contained 4 rats. Compounds tested were given orally twice daily for 3 days and once on day 4. Control animals received the vehicle, methyl cellulose. The cholesterol-containing diet and compound treatment were started at the same time. Animals were bled before dietary and compound treatment and 3 hr after the last dose of compound on day 4. All bleedings were after a 4 hr fast. Total serum cholesterol, triglyceride and high density lipoprotein (HDL) cholesterol determined by the procedure and test kit supplied by Dow Diagnostics (Trademark of the Dow Chemical Co. Laboratories, Indianapolis, IN). Very low and low density lipoprotein (VLDL & LDL) cholesterol were determined by the difference between total and HDL cholesterol.
By the method of Example 5 various compounds of formula (IA) were assessed for their ability to reduce cholesterol and triglyceride levels in rats. The compounds were compared in efficacy to clofibrate.

[2] = tested on: rats; assay: Oral toxicity in rats; type: in vivo; settings: oral administration to rats at upto 1 g/kg bodyweight

Cc1ccc(-c2ccccc2C(=O)O)cc1 [CH3, 2-(4-Methylphenyl)-benzoic acid]
Cholesterol lowering [1]: M
Triglyceride lowering [1]: M

O=C(O)c1ccccc1-c1ccc(Cl)cc1 [Cl, 2-(4-Chlorophenyl)-benzoic acid]
Cholesterol lowering [1]: M
Triglyceride lowering [1]: In

CCOC(=O)C(C)(C)Oc1ccc(Cl)cc1 [Clofibrate, reference compound]
% change in serum from control HDL ([1]; dose 100 mg/kg/day): −21%
% change in serum from control HDL ([1]; dose 200 mg/kg/day): −28%
% change in serum from control VLDL & LDL ([1]; dose 100 mg/kg/day): 0%
% change in serum from control VLDL & LDL ([1]; dose 200 mg/kg/day): −29%
% change in serum from control Cholesterol ([1]; dose 25 mg/kg/day): 0%
% change in serum from control Triglyceride ([1]; dose 25 mg/kg/day): 0%
% change in serum from control Cholesterol ([1]; dose 50 mg/kg/day): 0%
% change in serum from control Triglyceride ([1]; dose 50 mg/kg/day): −31%
% change in serum from control Cholesterol ([1]; dose 100 mg/kg/day): 0%
% change in serum from control Triglyceride ([1]; dose 100 mg/kg/day): −33%
% change in serum from control Cholesterol ([1]; dose 200 mg/kg/day): −28%
% change in serum from control Triglyceride ([1]; dose 200 mg/kg/day): −40%

CCc1ccc(-c2ccccc2C(=O)O)cc1 [Example C2H5, 2-(4-Ethylphenyl)-benzoic acid]
Cholesterol lowering [1]: A
Triglyceride lowering [1]: A

O=C(O)c1ccccc1-c1ccc(F)cc1 [F, 2-(4-Fluorophenyl)-benzoic acid]
Cholesterol lowering [1]: In
Triglyceride lowering [1]: M

CC(C)c1ccc(-c2ccccc2C(=O)O)cc1 [I C3H7, 2-(4-isoPropylphenyl)-benzoic acid]
Cholesterol lowering [1]: A
Triglyceride lowering [1]: A

O=C(O)c1ccccc1-c1ccc(C(F)(F)F)cc1 [IA(R=CF3), 2-(4-trifluoromethylphenyl)benzoic acid]
% change in serum from control HDL ([1]; dose 25 mg/kg/day): −6%
% change in serum from control HDL ([1]; dose 50 mg/kg/day): +10%
% change in serum from control HDL ([1]; dose 150 mg/kg/day): −15%
% change in serum from control VLDL & LDL ([1]; dose 25 mg/kg/day): −46%
% change in serum from control VLDL & LDL ([1]; dose 50 mg/kg/day): −64%
% change in serum from control VLDL & LDL ([1]; dose 150 mg/kg/day): −52%
% change in serum from control Cholesterol ([1]; dose 25 mg/kg/day): −40%
% change in serum from control Triglyceride ([1]; dose 25 mg/kg/day): −43%
% change in serum from control Cholesterol ([1]; dose 50 mg/kg/day): −56%
% change in serum from control Triglyceride ([1]; dose 50 mg/kg/day): −53%
% change in serum from control Cholesterol ([1]; dose 100 mg/kg/day): −51%
% change in serum from control Triglyceride ([1]; dose 100 mg/kg/day): −57%
% change in serum from control Cholesterol ([1]; dose 150 mg/kg/day): −40%
% change in serum from control Triglyceride ([1]; dose 150 mg/kg/day): −60%
Cholesterol lowering [1]: A
Triglyceride lowering [1]: A
deaths [2]: no deaths were observed

COc1ccc(-c2ccccc2C(=O)O)cc1 [OCH3, 2-(4-Methoxyphenyl)-benzoic acid]
Cholesterol lowering [1]: M
Triglyceride lowering [1]: A

CCCCc1ccc(-c2ccccc2C(=O)O)cc1 [n C4H9, 2-(4-n-butylphenyl)benzoic acid]
Cholesterol lowering [1]: A
Triglyceride lowering [1]: A

CC(C)(C)c1ccc(-c2ccccc2C(=O)O)cc1 [t C4H9, 2-(4-t-Butylphenyl)-benzoic acid]
Cholesterol lowering [1]: M
Triglyceride lowering [1]: A
